Test results as given in patent US20250197387A1, “BCL-XL DEGRADERS AND USES THEREOF” (Kymera Therapeutics, Inc., priority 2021, published 2025).

Assays:
Type in all cases: cell-based
BCL-XL [1] = molecular target: T1, BCL-XL (Homo sapiens, UniProt Q07817); assay: Bcl-xL ELISA degradation in MOLT-4 cells, 6 h; settings: for DC50: read-out: Bcl-xL ELISA in MOLT-4 degradation 6 h: Mean external-Abs DC50
T1 construct: endogenous in cells; host or cells: MOLT-4
Procedure: The letter codes for BCL-XL DC50 include: A (<0.01 μM); B (0.01-0.1 μM); C (>[…]); D (>0.5-1.0 μM); and E (>1.0 μM). The letter codes for Dmax % include A (>75%); B (50 to 75%); C (<50%).

Caki-2 cells = assay: CTG (CellTiter-Glo) cell viability assay, Caki-2; settings: Homo sapiens, 72 h, 3 day incubation, read-out: CTG Chempartner - Caki-2 3 day: Average external-IC50
How it was run: (§1)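 MOLT-4 and Caki-2 cells were seeded at 10,000 per well and treated with a 9-point, 1:3 dilution series from 10 μM top concentration (0.2% DMSO). After 3 days at 37 °C, 5% CO2, viability was read by CellTiter-Glo luminescence and IC50 fitted by three-parameter logistic.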

MOLT-4 cells = assay: CTG (CellTiter-Glo) cell viability assay, MOLT-4; settings: Homo sapiens, MOLT-4, 72 h, 3 day incubation, read-out: CTG Cell Viability Assay - MOLT-4 3 day: Average external-IC50
How it was run: as §1

BCL-XL [2] = molecular target: T1, BCL-XL; assay: BCL-XL degradation assay, western blot in MOLT-4 cells, 16 h; settings: western blot, MOLT-4 cells, 16 h; for Dmax: read-out: Bcl-xL WB in MOLT-4 degradation 16 h: Average Dmax %; for DC50: read-out: Bcl-xL WB in MOLT-4 degradation 16 h: Mean external-Abs DC50
How it was run: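 MOLT-4 cells treated with compounds at 0.02-10 μM final for 16 hr at 37° C; lysates analysed by western blot with anti-BCL-xL, beta-actin and GAPDH loading controls, infrared imaging and densitometry; DC50 and Dmax % reported as letter codes.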

T1 sequence (Q07817 whole entry): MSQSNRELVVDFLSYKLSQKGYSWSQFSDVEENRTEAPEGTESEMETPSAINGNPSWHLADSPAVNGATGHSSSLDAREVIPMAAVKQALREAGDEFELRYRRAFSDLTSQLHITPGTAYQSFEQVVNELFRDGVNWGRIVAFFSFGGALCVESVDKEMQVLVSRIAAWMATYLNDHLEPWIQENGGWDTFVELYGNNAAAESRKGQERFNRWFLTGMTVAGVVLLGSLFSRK

Dmax (BCL-XL [1]) [%] | DC50 (BCL-XL [1]) [nM] | IC50 (MOLT-4 cells) [nM] | Dmax (BCL-XL [2]) [%] | DC50 (BCL-XL [2]) [nM] | Structure (SMILES) | IC50 (Caki-2 cells) [nM]
50 to 75 | 10 to 100 | 100 to 1000 | > 75 | 10 to 100 | Cc1ncsc1-c1ccc([C@H](C)NC(=O)[C@@H]2C[C@@H](O)CN2C(=O)[C@@H](NC(=O)CCCCCCNC(=O)c2nc(N3CCc4cccc(C(=O)Nc5nc6ccccc6s5)c4C3)ccc2-c2cnn(CC3CCCCC3)c2C)C(C)(C)C)cc1 [I-96] | > 10000
> 75 | 10 to 100 | < 100 | > 75 | < 10 | Cc1ncsc1-c1ccc([C@H](C)NC(=O)[C@@H]2C[C@@H](O)CN2C(=O)[C@@H](NC(=O)CCc2ccc(S(=O)(=O)NC(=O)c3nc(N4CCc5cccc(C(=O)Nc6nc7ccccc7s6)c5C4)ccc3-c3cnn(CC4CCCCC4)c3C)cc2)C(C)(C)C)cc1 [I-123] | 1000 to 10000
– | – | < 100 | > 75 | < 10 | Cc1ncsc1-c1ccc([C@H](C)NC(=O)[C@@H]2C[C@@H](O)CN2C(=O)[C@@H](NC(=O)c2ccc(CCS(=O)(=O)NC(=O)c3nc(N4CCc5cccc(C(=O)Nc6nc7ccccc7s6)c5C4)ccc3-c3cnn(CC4CCCCC4)c3C)cc2)C(C)(C)C)cc1 [I-143] | 1000 to 10000
> 75 | 10 to 100 | < 100 | > 75 | < 10 | Cc1ncsc1-c1ccc([C@H](C)NC(=O)[C@@H]2C[C@@H](O)CN2C(=O)[C@@H](NC(=O)C2CCN(c3ccc(S(=O)(=O)NC(=O)c4nc(N5CCc6cccc(C(=O)Nc7nc8ccccc8s7)c6C5)ccc4-c4cnn(CC5CCCCC5)c4C)cc3)CC2)C(C)(C)C)cc1 [I-195] | 1000 to 10000
– | – | 100 to 1000 | 50 to 75 | < 10 | Cc1ncsc1-c1ccc([C@H](C)NC(=O)[C@@H]2C[C@@H](O)CN2C(=O)[C@@H](NC(=O)N2CC3(C2)CN(c2ccc(S(=O)(=O)NC(=O)c4nc(N5CCc6cccc(C(=O)Nc7nc8ccccc8s7)c6C5)ccc4-c4cnn(CC5CCCCC5)c4C)cc2)C3)C(C)(C)C)cc1 [I-196] | 1000 to 10000
> 75 | 10 to 100 | 100 to 1000 | > 75 | < 10 | C#Cc1ccc([C@H](CO)NC(=O)[C@@H]2C[C@@H](O)CN2C(=O)[C@@H](NC(=O)CCc2ccc(S(=O)(=O)NC(=O)c3nc(N4CCc5cccc(C(=O)Nc6nc7cccnc7s6)c5C4)ccc3-c3cnn(CC4CCCCC4)c3C)cc2)C(C)(C)C)cc1 [I-205] | > 10000
> 75 | 100 to 500 | > 3000 | 50 to 75 | 100 to 500 | Cc1ncsc1-c1ccc(CNC(=O)[C@@H]2C[C@@H](O)CN2C(=O)[C@@H](NC(=O)CCCS(=O)(=O)NC(=O)c2nc(N3CCc4cccc(C(=O)Nc5nc6cccnc6s5)c4C3)ccc2-c2cnn(CC3CCCCC3)c2C)C(C)(C)C)cc1 [I-351] | > 10000

The next lines start with the molecule.

Structure (SMILES) | Dmax (BCL-XL [1]) [%] | DC50 (BCL-XL [1]) [nM] | IC50 (MOLT-4 cells) [nM] | Dmax (BCL-XL [2]) [%] | DC50 (BCL-XL [2]) [nM] | IC50 (Caki-2 cells) [nM]
Cc1ncsc1-c1ccc(CNC(=O)[C@@H]2C[C@@H](O)CN2C(=O)[C@@H](NC(=O)C2(F)CC2)C(C)(C)C)c(OCCCCCS(=O)(=O)NC(=O)c2nc(N3CCc4cccc(C(=O)Nc5nc6ccccc6s5)c4C3)ccc2-c2cnn(CC34CC5CC(CC(C5)C3)C4)c2C)c1 [I-121] | > 75 | 10 to 100 | < 100 | > 75 | < 10 | 100 to 1000
Cc1ncsc1-c1ccc(CNC(=O)[C@@H]2C[C@@H](O)CC2C(=O)[C@@H](NC(=O)C2(F)CC2)C(C)(C)C)c(OCCCCCCNC(=O)c2nc(N3CCc4cccc(C(=O)Nc5nc6ccccc6s5)c4C3)ccc2-c2cnn(CC3CCCCC3)c2C)c1 (stereo partly drawn) [I-158] | < 50 | > 1000 | 1000 to 3000 | 50 to 75 | 100 to 500 | > 10000
Cc1ncsc1-c1ccc(CNC(=O)[C@@H]2C[C@@H](O)CN2C(=O)[C@@H](NC(=O)C2(F)CC2)C(C)(C)C)c(OCCCCCS(=O)(=O)NC(=O)c2nc(N3CCc4cccc(C(=O)Nc5nc6ccccc6s5)c4C3)ccc2-c2cnn(CC3CCCCC3)c2C)c1 [I-177] | > 75 | 10 to 100 | < 100 | > 75 | < 10 | 1000 to 10000
Cc1ncsc1-c1ccc([C@H](C)NC(=O)[C@@H]2C[C@@H](O)CN2C(=O)[C@@H](c2cc(OC3CCN(CCCS(=O)(=O)NC(=O)c4nc(N5CCc6cccc(C(=O)Nc7nc8ccccc8s7)c6C5)ccc4-c4cnn(CC5CCCCC5)c4C)CC3)no2)C(C)C)cc1 [I-178] | 50 to 75 | 10 to 100 | 100 to 1000 | > 75 | 10 to 100 | > 10000
Cc1ncsc1-c1ccc([C@H](C)NC(=O)[C@@H]2C[C@@H](O)CN2C(=O)[C@H](NC(=O)CCCCCCCS(=O)(=O)NC(=O)c2nc(N3CCc4cccc(C(=O)Nc5nc6ccccc6s5)c4C3)ccc2-c2cnn(CC(C)C)c2C)C(C)(C)C)cc1 [I-179] | > 75 | 10 to 100 | 100 to 1000 | > 75 | 10 to 100 | > 10000
Cc1ncsc1-c1ccc(CNC(=O)[C@@H]2C[C@@H](O)CN2C(=O)[C@@H](NC(=O)C2(F)CC2)C(C)(C)C)c(OCCC2CCN(CC[C@H](CSc3ccccc3)Nc3ccc(S(=O)(=O)NC(=O)c4ccc(N5CCN(CC6=C(c7ccc(Cl)cc7)CCC(C)(C)C6)CC5)cc4)cc3S(=O)(=O)C(F)(F)F)CC2)c1 [I-183] | 50 to 75 | 100 to 500 | < 100 | > 75 | < 10 | > 10000
Cc1ncsc1-c1ccc(CNC(=O)[C@@H]2C[C@@H](O)CN2C(=O)[C@@H](NC(=O)C2(F)CC2)C(C)(C)C)c(OCCCCCS(=O)(=O)NC(=O)c2nc(N3CCc4cccc(C(=O)Nc5nc6cccnc6s5)c4C3)ccc2-c2cnn(CC3CCCCC3)c2C)c1 [I-187] | 50 to 75 | 10 to 100 | 100 to 1000 | > 75 | 10 to 100 | > 10000
Cc1cc([C@@H](C(=O)N2C[C@H](O)C[C@H]2C(=O)NCc2ccc(-c3scnc3C)cc2OCCCCCCNC(=O)c2nc(N3CCc4cccc(C(=O)Nc5nc6ccccc6s5)c4C3)ccc2-c2cnn(CC3CCCCC3)c2C)C(C)C)on1 [I-198] | – | – | < 100 | > 75 | 10 to 100 | > 10000
Cc1ncsc1-c1ccc([C@H](CC(=O)NCCCCCNC(=O)c2nc(N3CCc4cccc(C(=O)Nc5nc6ccccc6s5)c4C3)ccc2-c2cnn(CC3CCCCC3)c2C)NC(=O)[C@@H]2C[C@@H](O)CN2C(=O)[C@@H](NC(=O)C2(F)CC2)C(C)(C)C)cc1 [I-199] | – | – | 100 to 1000 | > 75 | 10 to 100 | > 10000
Cc1ncsc1-c1ccc(CNC(=O)[C@@H]2C[C@@H](O)CN2C(=O)[C@@H](NC(=O)C2(F)CC2)C(C)(C)C)c(OCCN2CCN(C(=O)c3nc(N4CCc5cccc(C(=O)Nc6nc7ccccc7s6)c5C4)ccc3-c3cnn(CC4CCCCC4)c3C)CC2)c1 [I-201] | – | – | 100 to 1000 | > 75 | 10 to 100 | > 10000
C#Cc1ccc(CNC(=O)[C@@H]2C[C@@H](O)CN2C(=O)[C@@H](NC(=O)CCCS(=O)(=O)NC(=O)c2nc(N(C)c3cc(C)c(Nc4nc5ccccc5s4)nn3)ccc2-c2cnn(CC3CCCCC3)c2C)C(C)(C)C)cc1 [I-340] | 50 to 75 | 10 to 100 | 100 to 1000 | > 75 | 100 to 500 | > 10000
C#Cc1ccc(CNC(=O)[C@@H]2C[C@@H](O)CN2C(=O)[C@@H](NC(=O)CCCCS(=O)(=O)NC(=O)c2nc(N(C)c3cc(C)c(Nc4nc5ccccc5s4)nn3)ccc2-c2cnn(CC3CCCCC3)c2C)C(C)(C)C)cc1 [I-345] | 50 to 75 | 100 to 500 | 1000 to 3000 | > 75 | 100 to 500 | > 10000
Cc1cc(N(C)c2ccc(-c3cnn(CC4CCCCC4)c3C)c(C(=O)NS(=O)(=O)CCCCC(=O)N[C@H](C(=O)N3C[C@H](O)C[C@H]3C(=O)N[C@@H](C)c3ccc(-c4scnc4C)cc3)C(C)(C)C)n2)nnc1Nc1nc2ccccc2s1 [I-353] | > 75 | 100 to 500 | 1000 to 3000 | > 75 | 10 to 100 | > 10000
Cc1ncsc1-c1ccc(CNC(=O)[C@@H]2C[C@@H](O)CN2C(=O)[C@@H](NC(=O)CCOCCOCCOCCOCCOCCOCC#Cc2ccc(OCCCc3sc(N4CCc5cccc(C(=O)Nc6nc7ccccc7s6)c5C4)nc3C(=O)O)cc2)C(C)(C)C)cc1 [I-383] | > 75 | 10 to 100 | 100 to 1000 | > 75 | 10 to 100 | 1000 to 10000
Cc1ncsc1-c1ccc([C@H](C)NC(=O)[C@@H]2C[C@@H](O)CN2C(=O)[C@@H](NC(=O)CCCCCCCCC(=O)N(C)CC#Cc2ccc(OCCCc3sc(N4CCc5cccc(C(=O)Nc6nc7ccccc7s6)c5C4)nc3C(=O)O)c(F)c2)C(C)(C)C)cc1 [I-384] | – | – | 100 to 1000 | > 75 | < 10 | 1000 to 10000
